# Source: publication PMC7546081, “A Kunitz-type peptide from Dendroaspis polylepis venom as a simultaneous inhibitor of serine and cysteine proteases” (The Journal of Venomous Animals and Toxins Including …, 2020)
# Like-named read-outs stand apart in the source and are kept apart here. Bridge positions count the residues as written; N and C are the ends. Square brackets hold non-standard residues; d marks the D form. Peptide text beside a SMILES is read from it. * marks the point of attachment. EDDnp = O=[N+]([O-])c1ccc(NCCN*)c([N+](=O)[O-])c1; AMC = Cc1cc(=O)oc2cc(N*)ccc12; 2Abz = Nc1ccccc1C(=O)O; Cbz = O=C(OCc1ccccc1)*
# Key:
# [1] = molecular target: T1, elastase-1 (Sus scrofa, UniProt P00772); experiment: Kinetic characterization of elastase-1 inhibition (Michaelis-Menten, Dixon plot); assay type: biochemical; details: for Elastase inhibition: data not shown
# T1 construct: purchased Sigma-Aldrich
# Protocol: To determine the inhibition constant (Ki ) of the peptide, firstly the Michaelis-Menten constant (Km ) for the Abz-FRSSRQ-EDDnp hydrolysis by elastase-1 was obtained. For this, the concentrations of 2.5 µM, 5.0 µM, 10.0 µM, 15.0 µM, 25.0 µM and 50.0 µM of the substrate were used, in Tris 50 mM, NaCl 50 mM pH 8.0. Initial rates were determined at an enzyme concentration (100 ng) that would hydrolyze less than 10% of the substrate. The kinetic parameters (Km and Vmax ) were calculated by Michaelis-Menten equation using the Grafit 5 software (Erithacus Software, West Sussex, UK), as previously described. All experiments were performed in duplicate.
# The Kunitz-type peptide quantification was determined by the BCA method using insulin as standard (5 µg/µL, 10 µg/µL, 25 µg/µL, 50 µg/µL e 100 µg/µL). To determine the mechanism of action of the Kunitz-type inhibitor, two concentrations of Abz-FRSSRQ-EDDnp, 6.8 µM and 3.4 µM, and two concentrations of the purified peptide, 0.63 µM and 0.94 µM, were utilized. For each substrate concentration it was made a control test (absence of the peptide). The assays were performed in duplicate and during all experiment the consumption of substrate was maintained under 10%. The reactions were monitored in the fluorimeter, as described above, and were analyzed in the Grafit 5 software (Erithacus Software, West Sussex, UK). The mechanism and the inhibition constants were determined through the Dixon plot (1/V x [I]) equation [20]. The plot was made in the software GraphPad Prism 5.
# [2] = molecular target: T2, recombinant human cathepsin L (Homo sapiens, UniProt P07711); experiment: Stability test of peptides against hydrolysis by cathepsin L (RP-HPLC); assay type: in vitro ADME; details: cathepsin L 10 ng, NaCl 200 mM, EDTA 5 mM, DTT 6.25 mM pH 5.5; 37 °C; 4 hours and overnight (16 hours); C18 RP-HPLC, UV 214 nm; duplicate; data not shown
# T2 construct: purchased R&D systems
# Protocol: The synthetic peptides PEP1 and PEP2 (50 mM) were incubated with elastase-1 (300 ng), in Tris 50 mM, NaCl 50 mM pH 8.0 buffer, and cathepsin L (10 ng), in 50 mM, NaCl 200 mM, EDTA 5 mM, DTT 6.25 mM pH 5.5 buffer, at 37 °C in two different time intervals, 4 hours and overnight. Samples containing only the synthetic peptides were used as negative control. After incubation, samples were analyzed, in duplicate by reverse phase chromatography on HPLC, using a Shim-pack C-18 column in the same conditions described above.
# Target sequence in this assay (P07711 114-333): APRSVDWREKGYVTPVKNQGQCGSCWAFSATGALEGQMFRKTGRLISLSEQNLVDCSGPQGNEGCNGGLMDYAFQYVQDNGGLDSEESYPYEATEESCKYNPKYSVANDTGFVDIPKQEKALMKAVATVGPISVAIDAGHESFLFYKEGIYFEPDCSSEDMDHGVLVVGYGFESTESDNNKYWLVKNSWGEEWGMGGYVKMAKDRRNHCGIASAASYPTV
# [3] = molecular target: T1, elastase-1; experiment: Stability test of peptides against hydrolysis by elastase-1 (RP-HPLC); assay type: in vitro ADME; details: data not shown; for Stability against hydrolysis by elastase-1: peptide 50 mM (so in the source), elastase-1 300 ng, Tris 50 mM, NaCl 50 mM pH 8.0, 37 °C, 4 hours and overnight, C18 RP-HPLC, UV 214 nm, duplicate
# Protocol: Samples containing only the synthetic peptides were used as negative control. After incubation, samples were analyzed, in duplicate by reverse phase chromatography on HPLC, using a Shim-pack C-18 column in the same conditions described above.
# [4] = molecular target: T2, recombinant human cathepsin L; experiment: Kinetic characterization of cathepsin L inhibition (Michaelis-Menten, Dixon plot); assay type: biochemical
# Protocol: To obtain the Michaelis-Menten constant (Km ) of the Z-FR-MCA hydrolysis by cathepsin L (1 ng), 1 µM, 2.5 µM, 5.0 µM, 7.5 µM, 12.5 µM, 15 µM, 20 µM concentrations of Z-FR-MCA substrate were tested in 50 mM, NaCl 200 mM, EDTA 5 mM, DTT 6.25 mM pH 5.5 buffer (final volume of 100 µL).The reactions were continuously monitored (fluorescence at λEM 480 nm and λEX 360 nm) in a fluorimeter (425-301 Hidex, Finland), as described. The maximum speed (Vmax ) and the Km were obtained in the Grafit 5 software. All experiments were performed in duplicate. To determine the mechanism of inhibition and the inhibition constant (Ki ) of inhibitor PEP2, two concentrations of the Z-FR-MCA, 5.2 µM (2 Km ) and 7.8 (3 Km ), and three concentrations of the inhibitor PEP2, 1 µM, 2.5 µM and 5 µM, were used. Samples without PEP2 for each substrate concentration were utilized. The experiments were carried out in duplicates and the consumption of the substrate was maintained under 10%. The results were analyzed in the Grafit 5 software. The mechanism and the inhibition constants were determined through the Dixon plot (1/V x [I]) equation [20], using the software GraphPad Prism 5.
# [5] = test system: trypsin; experiment: Trypsin inhibition; assay type: biochemical; details: data not shown
# [6] = test system: potassium channel; details: read-out: Potassium channel blocker activity IC50; cited from earlier work
# [7] = test system: chymotrypsin; experiment: Chymotrypsin inhibition; assay type: biochemical; details: data not shown
# [8] = molecular target: T3, pancreatic elastase (EC 3.4.21.36) (UniProt P00772 27-266); experiment: enzyme inhibition kinetics (fluorimetric, Dixon plot); elastase-1 (100 ng) with the FRET substrate Abz-FRSSRQ-EDDnp at 3.4 and 6.8 µM, purified peptide at 0.63 and 0.94 µM; Tris 50 mM, NaCl 50 mM, pH 8.0, 37 °C; duplicates; mechanism found uncompetitive; details: both partners purified
# T3 construct: also called elastase-1; source: bought: Sigma-Aldrich
# T3 sequence (P00772 27-266): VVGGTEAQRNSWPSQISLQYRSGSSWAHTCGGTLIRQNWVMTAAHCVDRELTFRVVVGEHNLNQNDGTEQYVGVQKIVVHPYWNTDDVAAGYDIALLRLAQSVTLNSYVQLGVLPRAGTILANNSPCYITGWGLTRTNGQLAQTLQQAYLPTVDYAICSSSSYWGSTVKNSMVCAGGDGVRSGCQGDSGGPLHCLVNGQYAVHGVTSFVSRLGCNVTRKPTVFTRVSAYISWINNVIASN
# T1 sequence (P00772 27-266): as above
molecule,measurement,setting,value
"N=C(N)NCCC[C@H](NC(=O)[C@H](Cc1ccccc1)NC(=O)c1ccccc1N)C(=O)N[C@@H](CO)C(=O)N[C@@H](CO)C(=O)N[C@@H](CCCNC(=N)N)C(=O)N[C@@H](CCC(N)=O)C(=O)NCCNc1ccc([N+](=O)[O-])cc1[N+](=O)[O-] [Abz-FRSSRQ-EDDnp, reference compound] (H-[2Abz]FRSSRQ-EDDnp)",Km,"[1]; Michaelis-Menten fit, Std. Error 2.2721 in its own column, read-out: Km, fit parameter value (Additional file 4A), elastase-1",10.6 µM
same,Km,"[1]; substrate 2.5-50.0 µM, elastase-1 100 ng, Tris 50 mM, NaCl 50 mM pH 8.0, Grafit 5, duplicate, read-out: Michaelis-Menten constant (Km) of substrate cleavage by elastase-1",10.7 µM
C[C@@H](O)[C@H](NC(=O)[C@H](Cc1ccccc1)NC(=O)CNC(=O)[C@H](CCC(=O)O)NC(=O)[C@H](CS)NC(=O)[C@H](CCC(N)=O)NC(=O)[C@H](CCCCN)NC(=O)[C@@H](N)CCCCN)C(=O)N[C@@H](Cc1c[nH]c2ccccc12)C(=O)N[C@@H](CO)C(=O)NCC(=O)N[C@@H](CS)C(=O)NCC(=O)NCC(=O)N[C@@H](CC(N)=O)C(=O)N[C@@H](CO)C(=O)O [PEP1] (H-KKQCEGFTWSGCGGNS-OH),Stability against hydrolysis by cathepsin L,[2],hydrolyzed
same,Stability against hydrolysis by elastase-1,[3],not stable
CC[C@H](C)[C@@H]1NC(=O)[C@H](CCCCN)NC(=O)[C@H](CCC(N)=O)NC(=O)[C@H](Cc2ccc(O)cc2)NC(=O)[C@@H](NC(=O)[C@H](CCCNC(=N)N)NC(=O)CNC(=O)[C@@H]2CCCN2)CSSC[C@@H](C(=O)NCC(=O)NCC(=O)O)NC(=O)CNC(=O)[C@H](CO)NC(=O)[C@H](Cc2c[nH]c3ccccc23)NC(=O)[C@H]([C@@H](C)O)NC(=O)[C@H](Cc2ccccc2)NC(=O)CNC(=O)[C@H](CCC(=O)O)NC(=O)[C@H](C(C)C)NC(=O)[C@H](CCC(N)=O)NC(=O)[C@H](CCCCN)NC(=O)[C@H](CCCCN)NC(=O)[C@H](CCCCN)NC(=O)[C@H](CCC(N)=O)NC(=O)[C@H](CC(N)=O)NC(=O)[C@H](Cc2ccc(O)cc2)NC(=O)[C@H](Cc2ccc(O)cc2)NC(=O)[C@H](Cc2ccccc2)NC(=O)[C@H](C)NC(=O)[C@@H]2CCCN2C1=O [PEP2] (H-PGRCYQKIPAFYYNQKKKQVEGFTWSGCGG-OH; disulfide 4-28),Stability against hydrolysis by cathepsin L,[2],not degraded
same,Stability against hydrolysis by elastase-1,[3],not stable
same,Ki,"[4]; Dixon plot, Z-FR-MCA 5.2 and 7.8 µM (2 and 3 Km), PEP2 0, 1.0, 2.5 and 5.0 µM, cathepsin L 1 ng, pH 5.5 buffer with DTT 6.25 mM, duplicate, read-out: Inhibition constant (Ki) for cathepsin L",1.96 µM
Cbz-Phe-Arg-{AMC},Km,"[4]; Michaelis-Menten fit, Std. Error 0.4867 in its own column, read-out: Km, fit parameter value (Additional file 4B), cathepsin L",2.65 µM
same,Km,"[4]; substrate 1-20 µM, cathepsin L 1 ng, pH 5.5 buffer, Grafit 5, duplicate, read-out: Michaelis-Menten constant (Km) of substrate hydrolysis by cathepsin L",2.65 µM
Kunitz-type serine protease inhibitor homolog dendrotoxin I (QPLRKLCILHRNPGRCYQKIPAFYYNQKKKQCEGFTWSGCGGNSNRFKTIEECRRTCIRK) [Kunitz-type peptide],Inhibition of trypsin,[5],no other serine protease inhibitions
same,Mechanism of inhibition of elastase-1,"[1]; Dixon plot (1/V versus [I]), parallel lines",uncompetitive inhibitor
same,Elastase inhibition,[1]; peptide 1.26 µM,above 70%
same,Elastase inhibition,[1]; peptide 3.52 µM,above 70%
same,Stability on incubation with elastase-1 (substrate or not),[3]; overnight incubation with elastase-1,not an elastase-1 substrate
same,IC50,[6],0.00013 to 0.05 µM
same,Inhibition of chymotrypsin,[7],no other serine protease inhibitions
Kunitz-type serine protease inhibitor homolog dendrotoxin I (also called Kunitz-type peptide; Kunitz peptide) QPLRKLCILHRNPGRCYQKIPAFYYNQKKKQCEGFTWSGCGGNSNRFKTIEECRRTCIRK,Ki,[8],8 µM
